In PubChem BioAssay (NCI):
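How tested: cells in 96-well plates exposed to compound for 48 hours at five concentrations. GI50: concentration for 50% inhibition of growth. Definition used: TGI = concentration required for complete inhibition of growth.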

What was measured:
Experiment in all cases: NCI-60 cell line screen, 48 h
[1] = tested on: SF-268 CNS
[2] = tested on: A549 NSCLC
[3] = tested on: HOP-92 NSCLC
[4] = tested on: SNB-75 CNS
[5] = tested on: NCI-H460 lung
[6] = tested on: OVCAR-8 ovarian
[7] = tested on: IGROV1 ovarian
[8] = tested on: DU-145 prostate
[9] = tested on: EKVX NSCLC
[10] = tested on: SF-295 CNS
[11] = tested on: SK-MEL-5 melanoma
[12] = tested on: SW-620 colon
[13] = tested on: LOX IMVI melanoma
[14] = tested on: MDA-MB-435
[15] = tested on: SNB-19 CNS
[16] = tested on: SN12C renal
[17] = tested on: OVCAR-4 ovarian
[18] = tested on: TK-10 renal
[19] = tested on: MALME-3M melanoma
[20] = tested on: CAKI-1 renal
[21] = tested on: NCI-H23 lung
[22] = tested on: HOP-62 NSCLC
[23] = tested on: RXF 393 renal
[24] = tested on: BT-549 breast
[25] = tested on: HT29 colon
[26] = tested on: CCRF-CEM leukemia
[27] = tested on: 786-0 renal
[28] = tested on: SK-MEL-2 melanoma
[29] = tested on: A498 renal
[30] = tested on: MCF7 breast
[31] = tested on: KM12 colon
[32] = tested on: UACC-257 melanoma
[33] = tested on: SF-539 CNS
[34] = tested on: PC-3 prostate
[35] = tested on: OVCAR-5 ovarian
[36] = tested on: MOLT-4 leukemia
[37] = tested on: OVCAR-3 ovarian
[38] = tested on: UACC-62 melanoma
[39] = tested on: HCT-116 colon
[40] = tested on: HCC-2998 colon
[41] = tested on: NCI-H226 lung
[42] = tested on: COLO 205 colon
[43] = tested on: HL-60(TB) leukemia
[44] = tested on: HCT-15 colon
[45] = tested on: M14 melanoma
[46] = tested on: HS 578T breast
[47] = tested on: SK-OV-3 ovarian
[48] = tested on: ACHN renal
[49] = tested on: SK-MEL-28 melanoma
[50] = tested on: MDA-MB-231 breast
[51] = tested on: NCI/ADR-RES ovarian
[52] = tested on: RPMI-8226 leukemia
[53] = tested on: NCI-H522 lung
[54] = tested on: UO-31 renal
[55] = tested on: T-47D breast

CCOC(=O)c1nnn(-c2no[n+]([O-])c2-c2ccc(OC)cc2)c1COc1cccc2cccnc12
GI50 [1]: 3.03 µM
TGI [1]: 15 µM
GI50 [2]: 3.87 µM
TGI [2]: 16.1 µM
GI50 [3]: 5.09 µM
TGI [3]: 20.6 µM
GI50 [4]: 3.41 µM
TGI [4]: 14.1 µM
GI50 [5]: 3.29 µM
TGI [5]: 11.5 µM
GI50 [6]: 2.23 µM
TGI [6]: 8.03 µM
GI50 [7]: 4.27 µM
TGI [7]: 16 µM
GI50 [8]: 5.24 µM
TGI [8]: 17.1 µM
GI50 [9]: 7.79 µM
TGI [9]: 35.2 µM
GI50 [10]: 3.09 µM
TGI [10]: 13.7 µM
GI50 [11]: 3.46 µM
TGI [11]: 12.9 µM
GI50 [12]: 0.399 µM
TGI [12]: 1.8 µM
GI50 [13]: 0.355 µM
TGI [13]: 1.44 µM
GI50 [14]: 1.16 µM
TGI [14]: 5.09 µM
GI50 [15]: 3.25 µM
TGI [15]: 14 µM
GI50 [16]: 0.638 µM
TGI [16]: 3.55 µM
GI50 [17]: 2.34 µM
TGI [17]: 13.3 µM
GI50 [18]: 2.59 µM
TGI [18]: 7.35 µM
GI50 [19]: 2.44 µM
TGI [19]: 6.31 µM
GI50 [20]: 2.23 µM
TGI [20]: 6.38 µM
GI50 [21]: 3.79 µM
TGI [21]: 17.1 µM
GI50 [22]: 4.7 µM
TGI [22]: 25.9 µM
GI50 [23]: 1.77 µM
TGI [23]: 4.07 µM
GI50 [24]: 0.657 µM
TGI [24]: 3.1 µM
GI50 [25]: 1.42 µM
TGI [25]: 3.45 µM
GI50 [26]: 0.318 µM
TGI [26]: > 100 µM
GI50 [27]: 2.29 µM
TGI [27]: 5.24 µM
GI50 [28]: 1.98 µM
TGI [28]: 9.95 µM
GI50 [29]: 2.15 µM
TGI [29]: 8.75 µM
GI50 [30]: 1.97 µM
TGI [30]: 17 µM
GI50 [31]: 4.32 µM
TGI [31]: 17.8 µM
TGI [32]: 25.7 µM
GI50 [33]: 2.19 µM
TGI [33]: 6.13 µM
GI50 [34]: 3.98 µM
TGI [34]: 16.3 µM
GI50 [35]: 2.9 µM
TGI [35]: 8.21 µM
GI50 [36]: 1.91 µM
TGI [36]: 8.47 µM
GI50 [37]: 2.8 µM
TGI [37]: 7.05 µM
GI50 [38]: 2.38 µM
TGI [38]: 12.8 µM
GI50 [39]: 0.391 µM
TGI [39]: 3.59 µM
GI50 [40]: 3.38 µM
TGI [40]: 9.98 µM
GI50 [41]: 6.3 µM
TGI [41]: 39.7 µM
GI50 [42]: 2.33 µM
TGI [42]: 5.5 µM
GI50 [43]: 1.07 µM
TGI [43]: 5.31 µM
GI50 [44]: 2.38 µM
TGI [44]: 7.03 µM
GI50 [45]: 1.69 µM
TGI [45]: 7.49 µM
GI50 [46]: 2.76 µM
TGI [46]: 13.3 µM
GI50 [47]: 6.12 µM
TGI [47]: > 100 µM
GI50 [48]: 1.7 µM
TGI [48]: 3.29 µM
GI50 [49]: 2.22 µM
TGI [49]: 6.15 µM
GI50 [50]: 2.73 µM
TGI [50]: 7.98 µM
GI50 [51]: 3.05 µM
TGI [51]: 21.9 µM
GI50 [52]: 0.481 µM
TGI [52]: 3.38 µM
GI50 [53]: 0.51 µM
TGI [53]: 2.16 µM
GI50 [54]: 2.45 µM
TGI [54]: 8.2 µM
GI50 [55]: 4.67 µM
TGI [55]: 28.8 µM
